Experimental data from ChEMBL document CHEMBL1201862, “PubChem BioAssay data set” (2004).
Activity calls are given as the source filed them.

Assays:
[1] = molecular target: T1, High affinity choline transporter 1 (Homo sapiens, UniProt Q9GZV3); assay: CHT inhibitors, dose response, cell-based, 5-point CRC, membrane potential dye (AID 504840); format: functional
T1 sequence (Q9GZV3 whole entry): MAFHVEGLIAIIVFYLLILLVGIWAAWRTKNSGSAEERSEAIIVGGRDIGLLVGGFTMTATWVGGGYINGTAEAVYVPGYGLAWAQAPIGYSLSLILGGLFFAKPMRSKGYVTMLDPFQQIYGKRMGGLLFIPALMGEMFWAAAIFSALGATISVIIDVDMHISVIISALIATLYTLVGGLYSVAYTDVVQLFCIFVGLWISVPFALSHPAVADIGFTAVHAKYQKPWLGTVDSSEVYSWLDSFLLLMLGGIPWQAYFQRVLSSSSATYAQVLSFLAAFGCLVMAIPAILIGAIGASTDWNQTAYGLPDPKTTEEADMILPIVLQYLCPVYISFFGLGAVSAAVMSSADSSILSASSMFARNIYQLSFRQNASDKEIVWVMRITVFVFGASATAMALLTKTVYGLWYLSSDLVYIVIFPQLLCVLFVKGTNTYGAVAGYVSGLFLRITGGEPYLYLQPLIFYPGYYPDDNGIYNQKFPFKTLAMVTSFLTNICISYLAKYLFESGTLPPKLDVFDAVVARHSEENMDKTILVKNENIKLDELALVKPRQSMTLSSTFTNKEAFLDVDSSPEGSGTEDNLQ

[2] = molecular target: T1, High affinity choline transporter 1; assay: CHT inhibitors, dose response, cell-based, 10-point CRC, membrane potential dye (AID 588401); format: functional;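 also: membrane potential dye fluorescence of choline-evoked depolarization via CHT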
[3] = molecular target: T2, Nuclear receptor subfamily 0 group B member 1 (Homo sapiens, UniProt P51843); format: functional, cell-based;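 also: HEK293T cells transfected with SF-1 and DAX-1 plus StAR promoter luciferase reporter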
T2 sequence (P51843 whole entry): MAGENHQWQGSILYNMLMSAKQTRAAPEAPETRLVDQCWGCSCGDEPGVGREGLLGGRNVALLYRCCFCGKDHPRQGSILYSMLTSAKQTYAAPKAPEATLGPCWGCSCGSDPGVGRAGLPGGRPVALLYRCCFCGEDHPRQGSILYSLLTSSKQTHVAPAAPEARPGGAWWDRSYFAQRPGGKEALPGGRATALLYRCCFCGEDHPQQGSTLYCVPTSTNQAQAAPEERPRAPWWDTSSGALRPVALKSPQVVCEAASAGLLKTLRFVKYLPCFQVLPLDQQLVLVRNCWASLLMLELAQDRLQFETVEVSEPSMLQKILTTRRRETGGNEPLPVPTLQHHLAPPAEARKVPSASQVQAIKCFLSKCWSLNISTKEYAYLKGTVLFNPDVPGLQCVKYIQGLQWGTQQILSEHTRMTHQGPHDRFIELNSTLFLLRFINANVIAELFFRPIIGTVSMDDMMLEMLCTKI

cells = format: functional, cell-based

## O=C(Nc1c(C(=O)N2CCC(N3CCCCC3)CC2)oc2ccccc12)c1ccc(F)cc1
[1]
  IC50: 0.91 µM (active)
[2]
  IC50: 1.63 µM (active)
[3]
  IC50: > 67.5 µM (inactive)
cells
  IC50: > 67.5 µM (inactive)
